The source of these data is patent US6426343B1, “Preparation and use of a specific GABA-Aα5 receptor ligand for treatment of Alzheimer's disease” (Merck Sharp & Dohme Ltd., priority 1995, dated 2002).

The test system of series [1] is rats. In words: Watermaze experiment with SC pellet of FG 8094.
Series [2] relates to rats. In words: Pro-convulsant testing, chronic treatment, PTZ infusion. The series is classed as in vivo, rat. To be noted: 0.1, 0.3, 1.0 mg/kg IP, 24 doses, final dose 48 h before testing. On the procedure: The rats used in this study received chronic treatment with FG 8094 during a MWM experiment. The rats were dosed IP once per day (Monday to Friday) and received a total of 24 doses. Following each drug administration rats were tested in a MWM and received the final dose of drug 48 h prior to convulsant testing. The subjects were assigned to one of four treatment groups (n=8) and given either Vehicle, 0.1, 0.3, or 1.0 mg/kg of FG 8094.
On the day of proconvulsant testing, the rats were restrained and pentylenetetrazole (PTZ, 40.0 mg/ml) was infused as described above. The latency(s) to both clonic and tonic (full extension) convulsion was recorded. Latency data were transformed to yield the dose of PTZ needed to reach the threshold of both clonic and tonic seizures.

The nature of series [3]: Blood levels after subcutaneous pellet implantation. The settings on record: 1.5 mg in hydroxy propylmethylcellulose pellet, rats.
The target in a further series is T1, α5β2γ2 (Homo sapiens, UniProt P18507+P31644).
T1 construct: expressed in transfected cells; host or cells: Xenopus oocytes, nuclear injection of cDNAs in pCDM8
In words: Two electrode voltage-clamp, modulation of GABA EC20 current in Xenopus oocytes. The series is classed as cell-based. To be noted: 1 μM. On the procedure: (§1) Binding studies on transfected cells containing α1β3γ2S, α2β3γ2S, and α5β3γ2S have identified compounds with α5 selectivity. These compounds were studied using electrophysiological techniques (Wafford et al, 1993) to determine their functional effects on […], α2β2γ2S, α3β2γ2S, α5β2γ2S and α6β2γ2S GABAA receptors expressed in Xenopus oocytes. Oocyte nuclei were directly injected with 10.0-20.0 nl of the relevant cDNAs (6.0 ng/μl) engineered into the expression vector pCDM8. Following incubation for 24 h, oocytes were placed in a […] and perfused with saline. By using the two electrode voltage-clamp recording method, GABA activated currents could be measured by bathing the cell in a solution containing GABA. Firstly a reproducible current response was established using a GABA concentration which gave approximately 20% of the maximal GABA response that could be elicited (EC20). […] The response could be potentiated by a BZ receptor agonist or inhibited by BZ receptor inverse agonist
In general terms: Two-electrode voltage clamp holds a large cell at a set potential and records current.

In another series the target is T2, α2β2γ2 (Homo sapiens, UniProt P18507+P47869).
T2 construct: expressed in transfected cells; host or cells: Xenopus oocytes, nuclear injection of cDNAs in pCDM8
The series is described as above. The settings on record: 1 μM. The series is classed as cell-based. On the procedure: as §1

Another series concerns the target T3, α1β2γ2 (Homo sapiens, UniProt P14867+P18507).
T3 construct: expressed in transfected cells; host or cells: Xenopus oocytes, nuclear injection of cDNAs in pCDM8
The series is described as above. To be noted: 1 μM. The series is classed as cell-based. On the procedure: as §1

Another series concerns the target T4, α3β2γ2 (Homo sapiens, UniProt P18507+P34903).
T4 construct: expressed in transfected cells; host or cells: Xenopus oocytes, nuclear injection of cDNAs in pCDM8
The series is described as above. In kind it is cell-based. The settings on record: 1 μM. On the procedure:
as §1

The subject of another series is Forebrain (all α). In words: In vivo [3H]Ro 15-1788 binding, forebrain. The arrangement: species or system mouse. To be noted: 30 min, mean±SEM, relative to vehicle. On the procedure: The in vivo binding of [^3H]Ro 15-1788 to mouse brain was performed essentially as described by Goeders and Kuhar (1985). Male Swiss-Webster mice received a 0.9% NaCl solution containing 50 mCi/kg of [^3H]Ro 15-1788 (0.05 ml/10 g of body weight) via the tail vein. […] Each mouse brain was then rapidly removed, homogenised in 5.0 ml of 50 mM Tris HCl, 5.0 mM EDTA, pH 7.4 at 4° C. using an ultra-turrax homogeniser for 10 s at setting 5. In a separate series of experiments different brain regions, selected for their preferential expression of particular GABA subtypes were also examined. Binding of [^3H]Ro 15-1788 to cerebellum is almost exclusively α1-like (Quirk et al, 1994), whereas binding to spinal cord is indicative of binding to receptors containing α2 or α3-subtypes, α1, α4 and α5 are rare or absent in this region (Wisden et al, 1992). Brains were rapidly dissected into forebrain and cerebellum and the spinal cord was also removed. […] Volumes ([…]) of homogenate were filtered rapidly through GF/B filters, washed with 2×5.0 ml volumes of ice-cold buffer and the residual radioactivity was counted by liquid scintillation spectroscopy. […]

Another series deals with T5, α3β3γ2 (Homo sapiens, UniProt P18507+P34903).
T5 construct: expressed in transfected cells
In words: Radioligand binding, membranes of stably transfected cells.

A further series relates to α5-containing receptors. In words: Occupancy of α5-containing receptors calculated by Clarke's equation. The series is classed as in vivo, mouse. On the procedure:
If it is assumed that the percentage inhibition of in vivo [^3H]Ro 15-1788 binding is a measure of receptor occupancy then the concentration at the receptor site in brain can be calculated according to Clarke's equation (occupancy=[drug]/[drug]+Ki). Substituting the occupancy determined at α1 and α2/3-containing receptors, the concentration of FG 8094 available at BZ binding sites in […] is 7.8 nM and 13.2 nM respectively. Occupancy at α5-containing receptors cannot be measured directly because of the low abundance of the receptor, but it can be calculated using the concentration of drug and binding affinity using Clarke's equation. This predicts 95-97 % occupancy of α5-containing receptors 30 min after administration of FG 8094 (1 mg/kg).

The target of a further series is T6, α2β3γ2 (Homo sapiens, UniProt P18507+P47869).
T6 construct: expressed in transfected cells
In words: Radioligand binding, membranes of stably transfected cells.

Series [4] has as its target α5 subtype containing GABA-A receptors (Rattus norvegicus, UniProt P18508+P19969). In words: In vivo [3H]FG 8094 binding after pellet implantation. To be noted: SC pellet, after first four swim trials, [3H]FG 8094 IV.
Procedure: In a second experiment the vehicle or FG pellets were implanted into rats exactly as described above. However, after the first four swim trials the animals were injected (IV) with [^3H]FG 8094 and three mins later the brains of the animals were rapidly removed.

Structures are written as SMILES.

α5 subtype containing GABA-A receptors, sequence (P19969 32-464 limits assumed): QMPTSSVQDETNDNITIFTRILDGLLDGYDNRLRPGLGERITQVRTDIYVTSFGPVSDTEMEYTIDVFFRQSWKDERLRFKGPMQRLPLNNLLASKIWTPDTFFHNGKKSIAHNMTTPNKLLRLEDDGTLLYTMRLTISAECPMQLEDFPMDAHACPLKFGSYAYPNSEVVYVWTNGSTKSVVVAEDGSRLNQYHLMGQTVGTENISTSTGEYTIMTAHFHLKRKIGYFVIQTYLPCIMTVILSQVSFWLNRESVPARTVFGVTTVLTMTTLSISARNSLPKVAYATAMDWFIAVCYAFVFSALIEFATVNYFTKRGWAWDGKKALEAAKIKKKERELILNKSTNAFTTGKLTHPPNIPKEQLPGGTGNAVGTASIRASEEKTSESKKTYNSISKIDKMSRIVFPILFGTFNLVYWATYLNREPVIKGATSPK
α5 subtype containing GABA-A receptors, sequence (P18508 39-466): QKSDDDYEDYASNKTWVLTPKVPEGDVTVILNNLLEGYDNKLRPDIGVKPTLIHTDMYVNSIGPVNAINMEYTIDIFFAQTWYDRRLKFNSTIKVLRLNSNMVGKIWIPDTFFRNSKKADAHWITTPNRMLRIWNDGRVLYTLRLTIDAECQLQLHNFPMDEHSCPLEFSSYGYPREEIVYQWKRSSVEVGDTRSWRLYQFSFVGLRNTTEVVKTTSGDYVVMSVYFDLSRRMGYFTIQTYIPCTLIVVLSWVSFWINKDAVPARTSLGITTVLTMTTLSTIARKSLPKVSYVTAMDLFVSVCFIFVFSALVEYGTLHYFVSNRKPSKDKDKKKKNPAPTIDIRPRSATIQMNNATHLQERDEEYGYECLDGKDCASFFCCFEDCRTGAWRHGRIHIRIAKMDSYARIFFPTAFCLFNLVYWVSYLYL
α5 subtype containing GABA-A receptors, sequence (P63079 26-473 partner): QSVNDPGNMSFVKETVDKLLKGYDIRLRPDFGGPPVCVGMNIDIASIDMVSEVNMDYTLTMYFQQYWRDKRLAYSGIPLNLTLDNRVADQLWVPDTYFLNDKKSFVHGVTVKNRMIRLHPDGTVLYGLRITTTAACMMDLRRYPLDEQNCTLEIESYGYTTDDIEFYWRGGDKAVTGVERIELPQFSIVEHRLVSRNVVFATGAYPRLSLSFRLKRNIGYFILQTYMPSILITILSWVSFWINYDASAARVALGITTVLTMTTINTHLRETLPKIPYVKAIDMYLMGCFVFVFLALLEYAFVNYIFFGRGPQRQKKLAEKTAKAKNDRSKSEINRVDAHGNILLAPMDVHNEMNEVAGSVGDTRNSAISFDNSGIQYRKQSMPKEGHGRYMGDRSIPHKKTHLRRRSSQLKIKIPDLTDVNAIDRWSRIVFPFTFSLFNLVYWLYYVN
T1 sequence (P31644 32-462): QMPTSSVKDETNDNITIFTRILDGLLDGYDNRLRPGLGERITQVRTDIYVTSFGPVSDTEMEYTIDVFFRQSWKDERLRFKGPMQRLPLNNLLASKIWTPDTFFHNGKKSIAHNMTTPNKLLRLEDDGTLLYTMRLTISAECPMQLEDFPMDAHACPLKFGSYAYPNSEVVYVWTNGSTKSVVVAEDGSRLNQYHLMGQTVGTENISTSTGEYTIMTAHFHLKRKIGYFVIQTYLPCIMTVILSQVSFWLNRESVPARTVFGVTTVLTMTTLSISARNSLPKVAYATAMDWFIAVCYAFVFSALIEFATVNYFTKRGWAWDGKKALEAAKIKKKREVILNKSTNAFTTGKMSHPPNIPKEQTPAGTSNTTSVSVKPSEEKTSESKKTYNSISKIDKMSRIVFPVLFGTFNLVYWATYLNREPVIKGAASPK
T1 sequence (P47870 25-512 partner limits assumed): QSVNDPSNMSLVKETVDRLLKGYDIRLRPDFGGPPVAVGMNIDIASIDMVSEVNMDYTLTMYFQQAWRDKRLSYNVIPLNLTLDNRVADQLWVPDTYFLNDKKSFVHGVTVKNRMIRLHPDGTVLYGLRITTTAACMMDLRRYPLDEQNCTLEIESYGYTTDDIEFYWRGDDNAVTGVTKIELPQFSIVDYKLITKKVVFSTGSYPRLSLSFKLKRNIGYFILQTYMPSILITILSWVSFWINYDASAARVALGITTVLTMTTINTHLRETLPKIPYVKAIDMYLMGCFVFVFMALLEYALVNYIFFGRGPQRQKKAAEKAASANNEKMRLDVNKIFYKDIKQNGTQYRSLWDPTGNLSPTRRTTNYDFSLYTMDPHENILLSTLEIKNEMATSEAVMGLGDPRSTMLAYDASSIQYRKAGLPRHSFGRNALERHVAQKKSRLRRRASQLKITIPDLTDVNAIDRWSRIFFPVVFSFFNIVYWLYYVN
T1 sequence (P18507 40-467 isoform P18507-1 limits assumed): as the sequence (P18508 39-466) above
T3 sequence (P14867 28-456): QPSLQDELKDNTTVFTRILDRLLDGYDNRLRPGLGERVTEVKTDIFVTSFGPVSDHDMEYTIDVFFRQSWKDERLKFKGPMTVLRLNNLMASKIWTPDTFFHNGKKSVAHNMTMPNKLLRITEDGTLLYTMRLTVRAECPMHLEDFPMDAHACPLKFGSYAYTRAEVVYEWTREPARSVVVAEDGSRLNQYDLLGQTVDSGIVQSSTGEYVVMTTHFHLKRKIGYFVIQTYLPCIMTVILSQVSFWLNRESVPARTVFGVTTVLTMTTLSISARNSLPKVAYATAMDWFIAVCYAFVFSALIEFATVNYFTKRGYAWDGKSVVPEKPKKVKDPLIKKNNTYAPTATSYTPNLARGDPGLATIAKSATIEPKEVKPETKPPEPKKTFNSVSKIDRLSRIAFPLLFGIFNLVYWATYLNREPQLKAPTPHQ
T3 sequence (P47870 25-512 partner limits assumed): as the sequence (P47870 25-512 partner limits assumed) above
T3 sequence (P18507 40-467 isoform P18507-1 limits assumed): as the sequence (P18508 39-466) above
T4 sequence (P34903 29-492): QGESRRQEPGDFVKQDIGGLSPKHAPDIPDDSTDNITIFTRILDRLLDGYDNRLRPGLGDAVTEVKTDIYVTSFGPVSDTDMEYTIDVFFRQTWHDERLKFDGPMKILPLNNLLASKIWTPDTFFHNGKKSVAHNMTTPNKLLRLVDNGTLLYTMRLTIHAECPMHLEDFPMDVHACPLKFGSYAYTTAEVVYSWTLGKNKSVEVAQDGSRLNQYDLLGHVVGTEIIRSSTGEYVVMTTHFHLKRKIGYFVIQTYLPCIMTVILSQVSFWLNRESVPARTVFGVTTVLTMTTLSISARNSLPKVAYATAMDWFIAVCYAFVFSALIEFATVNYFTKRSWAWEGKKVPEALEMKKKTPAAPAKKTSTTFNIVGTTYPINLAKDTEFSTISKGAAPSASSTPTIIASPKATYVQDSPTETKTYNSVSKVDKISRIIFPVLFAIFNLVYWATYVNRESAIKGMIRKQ
T4 sequence (P47870 25-512 partner limits assumed): as the sequence (P47870 25-512 partner limits assumed) above
T4 sequence (P18507 40-467 isoform P18507-1 limits assumed): as the sequence (P18508 39-466) above
T5 sequence (P34903 29-492): as the sequence (P34903 29-492) above
T5 sequence (P28472 26-473 partner): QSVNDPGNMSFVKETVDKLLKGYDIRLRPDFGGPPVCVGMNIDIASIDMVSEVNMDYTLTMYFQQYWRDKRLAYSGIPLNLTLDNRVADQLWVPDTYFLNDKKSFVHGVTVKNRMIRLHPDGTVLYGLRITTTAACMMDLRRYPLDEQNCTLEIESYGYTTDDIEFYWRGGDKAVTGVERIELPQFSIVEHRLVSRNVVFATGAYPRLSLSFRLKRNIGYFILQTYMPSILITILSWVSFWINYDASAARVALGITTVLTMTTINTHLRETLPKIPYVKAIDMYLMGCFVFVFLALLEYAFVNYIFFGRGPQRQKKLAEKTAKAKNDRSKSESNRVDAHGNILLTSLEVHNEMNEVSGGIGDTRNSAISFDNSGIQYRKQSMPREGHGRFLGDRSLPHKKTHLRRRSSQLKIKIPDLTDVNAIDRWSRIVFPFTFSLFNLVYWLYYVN
T5 sequence (P18507 40-467 isoform P18507-1 limits assumed): as the sequence (P18508 39-466) above
T2 sequence (P47869 29-451): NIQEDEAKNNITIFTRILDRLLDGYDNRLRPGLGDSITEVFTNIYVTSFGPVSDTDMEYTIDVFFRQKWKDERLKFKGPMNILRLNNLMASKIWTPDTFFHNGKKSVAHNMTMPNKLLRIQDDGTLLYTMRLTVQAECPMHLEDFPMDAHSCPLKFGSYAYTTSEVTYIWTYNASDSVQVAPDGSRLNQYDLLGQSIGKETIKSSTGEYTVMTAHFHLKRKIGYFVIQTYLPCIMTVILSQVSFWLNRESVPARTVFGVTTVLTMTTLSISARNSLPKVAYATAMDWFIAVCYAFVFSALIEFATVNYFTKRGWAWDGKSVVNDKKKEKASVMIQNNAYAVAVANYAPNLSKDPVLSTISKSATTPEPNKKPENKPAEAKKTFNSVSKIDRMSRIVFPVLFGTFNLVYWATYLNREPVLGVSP
T2 sequence (P47870 25-512 partner limits assumed): as the sequence (P47870 25-512 partner limits assumed) above
T2 sequence (P18507 40-467 isoform P18507-1 limits assumed): as the sequence (P18508 39-466) above
T6 sequence (P47869 29-451): as the sequence (P47869 29-451) above
T6 sequence (P28472 26-473 partner): as the sequence (P28472 26-473 partner) above
T6 sequence (P18507 40-467 isoform P18507-1 limits assumed): as the sequence (P18508 39-466) above

In general, Ki refers to the equilibrium dissociation constant of an inhibitor or competing ligand from its target. As to `CCOC(=O)c1ncn2c1[C@@H]1CCCN1C(=O)c1cc(OC)ccc1-2` [FG 8094, 9H-imidazo[1,5-a]pyrrolo[2,1-C][1,4]benzodiazepine-1-carboxylic acid, 11, 12, 13, 13a-tetrahydro-7-methoxy-9-oxo-, ethyl ester, (S)-(9CI)], the convulsions or sedation entry with rats [1] (SC pellet) was “did not cause convulsions or sedation”. Further, in the series on rats [1] (pellet implanted SC 2 hrs before, training on one day), the watermaze performance entry is recorded as “improved performance”. Also, the “threshold dose of PTZ to clonic or tonic seizure” value with rats [2] is recorded as “no significant effect of treatment”. Also, in series [3], the blood levels entry was “greater than 100 ng/ml”. Also, in series [3], the “duration of blood levels greater than 100 ng/ml” value was “more than 6 hours”. Besides, the “functional effect on GABA EC20 current, α5β2γ2” value at α5β2γ2 is on record as “full receptor inverse agonist”. For the same compound, the “functional effect on GABA EC20 current, α2β2γ2” value at α2β2γ2 is given as “partial receptor inverse agonist”. The “functional effect on GABA EC20 current, α1β2γ2” value on α1β2γ2 is given as “no intrinsic effect”. For the same compound, the “functional effect on GABA EC20 current, α3β2γ2” value at α3β2γ2 was “partial receptor inverse agonist”. Further, the “percentage inhibition of in vivo [3H]Ro 15-1788 binding, forebrain” value in the series on Forebrain (all α) (1 mg/kg ip) was 8.3 ± 3.2; in the series on Forebrain (all α) (10 mg/kg ip), 53.3 ± 4.2. Moreover, the results for the Ki on α3β3γ2 and on α2β3γ2 were 24.5 ± 2 nM and 27.4 ± 2.5 nM, respectively. Also, the “occupancy of α5-containing receptors” value in the series on α5-containing receptors (1.0 mg/kg) is “virtually all”. Also, the “predicted occupancy of α5-containing receptors” value with α5-containing receptors (30 min after 1 mg/kg, Clarke's equation) is recorded as 95-97%. Also, the “occupancy of α5 subtype containing GABA-A receptors in the brain” value in series [4] is “approximately 85%”.
